Measured values from patent US12258327B2, “5-membered heteroaryl-containing aminopyridine compounds as EGFR inhibitors” (YUHAN CORPORATION, priority 2021, dated 2025).
Like-named read-outs stand apart in the source and are kept apart here.

Assays:
EGFR del19/T790M/C797S = EGFR del19/T790M/C797S (Homo sapiens, UniProt P00533, C797S/DEL746-750/T790M); assay: Biochemical EGFR kinase assay (Lance Ultra TR-FRET), triple mutant del19/T790M/C797S
How it was run: (§1)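 Step 1: compound in kinase buffer, 0.003–10 μM. Step 2: kinase reaction 1 h at room temperature. Step 4: TR-FRET read at 615/665 nm; IC50 calculated.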

EGFR L858R/T790M/C797S = EGFR L858R/T790M/C797S (Homo sapiens, UniProt P00533, C797S/L858R/T790M); assay: Biochemical EGFR kinase assay (Lance Ultra TR-FRET), triple mutant L858R/T790M/C797S
How it was run: as §1

EGFR del19/C797S = EGFR del19/C797S (Homo sapiens, UniProt P00533, C797S/DEL746-750); assay: Biochemical EGFR kinase assay (Lance Ultra TR-FRET), double mutant del19/C797S
How it was run: as §1

EGFR L858R/C797S = EGFR L858R/C797S (Homo sapiens, UniProt P00533, C797S/L858R); assay: Biochemical EGFR kinase assay (Lance Ultra TR-FRET), double mutant L858R/C797S
How it was run: as §1

EGFR wildtype (WT) = EGFR wildtype (WT) (Homo sapiens, UniProt P00533); assay: Biochemical EGFR kinase assay (Lance Ultra TR-FRET), wildtype
How it was run: as §1

[1] = IC50 del19/T790M/C797S (nM) 100 μM ATP, 100 μM ATP
[2] = Km ATP, read-out: IC50 del19/T790M/C797S (nM) Km ATP
[3] = IC50 L858R/T790M/C797S (nM) 100 μM ATP, 100 μM ATP
[4] = Km ATP, read-out: IC50 L858R/T790M/C797S (nM) Km ATP
[5] = IC50 del19/C797S (nM) 100 μM ATP, 100 μM ATP
[6] = Km ATP, read-out: IC50 del19/C797S (nM) Km ATP
[7] = IC50 L858R/C797S (nM) 100 μM ATP, 100 μM ATP
[8] = Km ATP, read-out: IC50 L858R/C797S (nM) Km ATP
[9] = IC50 WT (nM) 100 μM ATP, 100 μM ATP
[10] = Km ATP, read-out: IC50 WT (nM) Km ATP
[11] = Km ATP, read-out: IC50 del19/T790M/C797S, Km ATP
[12] = Km ATP, read-out: IC50 L858R/T790M/C797S, Km ATP
[13] = Km ATP, read-out: IC50 del19/C797S, Km ATP
[14] = Km ATP, read-out: IC50 L858R/C797S, Km ATP
[15] = Km ATP, read-out: IC50 WT, Km ATP

Chain of EGFR L858R/C797S (P00533 25-1210 C797S/L858R): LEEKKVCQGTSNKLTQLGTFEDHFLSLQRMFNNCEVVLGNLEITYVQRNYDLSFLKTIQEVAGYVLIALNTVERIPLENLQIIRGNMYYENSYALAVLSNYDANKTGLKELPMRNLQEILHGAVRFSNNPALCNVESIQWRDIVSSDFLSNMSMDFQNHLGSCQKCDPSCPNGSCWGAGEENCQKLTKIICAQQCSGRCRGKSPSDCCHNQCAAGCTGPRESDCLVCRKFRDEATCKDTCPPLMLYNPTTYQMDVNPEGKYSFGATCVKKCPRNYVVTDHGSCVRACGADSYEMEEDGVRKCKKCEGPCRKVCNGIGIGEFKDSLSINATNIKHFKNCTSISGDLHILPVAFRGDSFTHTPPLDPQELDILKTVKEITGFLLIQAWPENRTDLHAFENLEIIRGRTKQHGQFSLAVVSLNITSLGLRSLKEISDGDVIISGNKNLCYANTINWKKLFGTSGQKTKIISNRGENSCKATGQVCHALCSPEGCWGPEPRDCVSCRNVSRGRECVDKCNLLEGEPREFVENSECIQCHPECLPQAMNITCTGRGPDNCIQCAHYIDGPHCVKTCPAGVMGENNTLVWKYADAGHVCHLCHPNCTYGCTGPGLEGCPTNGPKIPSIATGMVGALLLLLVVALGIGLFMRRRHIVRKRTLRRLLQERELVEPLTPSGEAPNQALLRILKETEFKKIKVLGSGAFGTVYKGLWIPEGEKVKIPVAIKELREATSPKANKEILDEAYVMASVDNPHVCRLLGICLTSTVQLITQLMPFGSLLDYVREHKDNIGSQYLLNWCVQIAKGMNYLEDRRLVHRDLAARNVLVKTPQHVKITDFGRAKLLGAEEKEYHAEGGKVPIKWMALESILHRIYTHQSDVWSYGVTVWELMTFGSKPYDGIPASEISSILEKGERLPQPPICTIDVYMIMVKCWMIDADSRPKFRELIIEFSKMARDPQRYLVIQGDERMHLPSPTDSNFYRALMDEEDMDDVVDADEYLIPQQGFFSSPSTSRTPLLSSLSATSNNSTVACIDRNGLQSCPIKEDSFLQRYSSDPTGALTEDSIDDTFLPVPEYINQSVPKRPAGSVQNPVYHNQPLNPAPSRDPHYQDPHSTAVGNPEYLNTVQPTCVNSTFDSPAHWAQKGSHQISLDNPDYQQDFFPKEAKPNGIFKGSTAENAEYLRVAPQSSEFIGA
Chain of EGFR del19/T790M/C797S (P00533 with tags, fused parts or gaps DEL746-750/T790M/C797S): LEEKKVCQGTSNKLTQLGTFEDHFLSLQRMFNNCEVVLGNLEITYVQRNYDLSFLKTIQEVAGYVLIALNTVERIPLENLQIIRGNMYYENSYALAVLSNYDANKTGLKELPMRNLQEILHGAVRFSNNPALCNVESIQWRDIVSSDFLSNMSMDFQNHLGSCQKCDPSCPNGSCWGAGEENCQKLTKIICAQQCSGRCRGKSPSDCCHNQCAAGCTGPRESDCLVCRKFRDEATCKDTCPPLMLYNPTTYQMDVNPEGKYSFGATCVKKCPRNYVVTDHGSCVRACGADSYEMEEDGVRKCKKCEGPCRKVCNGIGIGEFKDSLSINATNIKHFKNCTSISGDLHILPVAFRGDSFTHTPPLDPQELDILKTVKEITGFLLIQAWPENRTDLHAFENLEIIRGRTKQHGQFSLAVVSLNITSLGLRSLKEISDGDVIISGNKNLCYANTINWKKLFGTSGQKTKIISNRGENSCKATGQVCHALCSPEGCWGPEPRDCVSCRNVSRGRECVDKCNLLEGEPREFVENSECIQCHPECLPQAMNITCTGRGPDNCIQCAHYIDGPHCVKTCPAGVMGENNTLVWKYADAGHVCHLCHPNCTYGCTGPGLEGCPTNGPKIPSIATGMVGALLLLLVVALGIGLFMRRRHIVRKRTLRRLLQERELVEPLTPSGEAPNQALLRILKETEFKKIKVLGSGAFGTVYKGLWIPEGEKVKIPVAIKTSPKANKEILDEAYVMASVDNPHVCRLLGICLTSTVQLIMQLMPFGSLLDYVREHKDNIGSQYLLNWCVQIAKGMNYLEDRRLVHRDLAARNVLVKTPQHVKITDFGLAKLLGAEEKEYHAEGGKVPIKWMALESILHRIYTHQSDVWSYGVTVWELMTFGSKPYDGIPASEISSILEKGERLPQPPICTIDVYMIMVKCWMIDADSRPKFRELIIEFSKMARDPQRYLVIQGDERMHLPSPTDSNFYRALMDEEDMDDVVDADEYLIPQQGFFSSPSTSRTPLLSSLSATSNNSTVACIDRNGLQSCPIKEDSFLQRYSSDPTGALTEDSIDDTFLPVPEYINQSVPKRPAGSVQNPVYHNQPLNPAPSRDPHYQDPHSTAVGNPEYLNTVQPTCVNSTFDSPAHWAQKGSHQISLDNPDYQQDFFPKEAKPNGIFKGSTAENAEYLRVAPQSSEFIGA
Chain of EGFR wildtype (WT) (P00533 25-1210): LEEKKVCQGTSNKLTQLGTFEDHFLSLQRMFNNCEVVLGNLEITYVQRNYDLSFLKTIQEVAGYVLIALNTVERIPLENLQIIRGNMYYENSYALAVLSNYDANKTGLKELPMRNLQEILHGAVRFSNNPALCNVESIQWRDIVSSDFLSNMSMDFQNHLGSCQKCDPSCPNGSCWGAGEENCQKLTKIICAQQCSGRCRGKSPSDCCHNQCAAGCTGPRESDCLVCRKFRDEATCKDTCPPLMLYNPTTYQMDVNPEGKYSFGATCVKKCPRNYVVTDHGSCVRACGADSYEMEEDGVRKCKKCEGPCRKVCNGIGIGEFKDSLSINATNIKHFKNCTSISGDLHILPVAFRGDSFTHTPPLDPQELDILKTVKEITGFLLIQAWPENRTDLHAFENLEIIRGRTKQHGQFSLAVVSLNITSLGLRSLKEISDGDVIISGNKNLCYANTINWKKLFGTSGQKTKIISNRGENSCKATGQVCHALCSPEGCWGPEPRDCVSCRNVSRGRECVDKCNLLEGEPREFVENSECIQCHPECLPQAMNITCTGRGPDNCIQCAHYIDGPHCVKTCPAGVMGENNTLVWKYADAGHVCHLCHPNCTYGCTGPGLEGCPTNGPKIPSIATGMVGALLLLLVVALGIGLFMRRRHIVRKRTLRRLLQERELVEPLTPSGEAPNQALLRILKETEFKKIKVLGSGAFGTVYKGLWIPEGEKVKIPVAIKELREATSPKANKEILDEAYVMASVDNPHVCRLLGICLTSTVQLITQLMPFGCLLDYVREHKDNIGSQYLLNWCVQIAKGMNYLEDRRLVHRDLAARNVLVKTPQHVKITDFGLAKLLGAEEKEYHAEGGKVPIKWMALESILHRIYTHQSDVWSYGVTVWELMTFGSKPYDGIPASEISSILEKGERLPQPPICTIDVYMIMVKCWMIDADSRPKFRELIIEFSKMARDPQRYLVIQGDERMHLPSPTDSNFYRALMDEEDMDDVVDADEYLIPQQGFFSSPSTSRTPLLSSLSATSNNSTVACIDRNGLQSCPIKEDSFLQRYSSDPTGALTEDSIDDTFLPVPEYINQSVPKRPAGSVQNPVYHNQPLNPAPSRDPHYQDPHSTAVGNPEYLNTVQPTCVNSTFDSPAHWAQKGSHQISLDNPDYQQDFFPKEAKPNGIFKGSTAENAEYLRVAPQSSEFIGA
Chain of EGFR del19/C797S (P00533 with tags, fused parts or gaps DEL746-750/C797S): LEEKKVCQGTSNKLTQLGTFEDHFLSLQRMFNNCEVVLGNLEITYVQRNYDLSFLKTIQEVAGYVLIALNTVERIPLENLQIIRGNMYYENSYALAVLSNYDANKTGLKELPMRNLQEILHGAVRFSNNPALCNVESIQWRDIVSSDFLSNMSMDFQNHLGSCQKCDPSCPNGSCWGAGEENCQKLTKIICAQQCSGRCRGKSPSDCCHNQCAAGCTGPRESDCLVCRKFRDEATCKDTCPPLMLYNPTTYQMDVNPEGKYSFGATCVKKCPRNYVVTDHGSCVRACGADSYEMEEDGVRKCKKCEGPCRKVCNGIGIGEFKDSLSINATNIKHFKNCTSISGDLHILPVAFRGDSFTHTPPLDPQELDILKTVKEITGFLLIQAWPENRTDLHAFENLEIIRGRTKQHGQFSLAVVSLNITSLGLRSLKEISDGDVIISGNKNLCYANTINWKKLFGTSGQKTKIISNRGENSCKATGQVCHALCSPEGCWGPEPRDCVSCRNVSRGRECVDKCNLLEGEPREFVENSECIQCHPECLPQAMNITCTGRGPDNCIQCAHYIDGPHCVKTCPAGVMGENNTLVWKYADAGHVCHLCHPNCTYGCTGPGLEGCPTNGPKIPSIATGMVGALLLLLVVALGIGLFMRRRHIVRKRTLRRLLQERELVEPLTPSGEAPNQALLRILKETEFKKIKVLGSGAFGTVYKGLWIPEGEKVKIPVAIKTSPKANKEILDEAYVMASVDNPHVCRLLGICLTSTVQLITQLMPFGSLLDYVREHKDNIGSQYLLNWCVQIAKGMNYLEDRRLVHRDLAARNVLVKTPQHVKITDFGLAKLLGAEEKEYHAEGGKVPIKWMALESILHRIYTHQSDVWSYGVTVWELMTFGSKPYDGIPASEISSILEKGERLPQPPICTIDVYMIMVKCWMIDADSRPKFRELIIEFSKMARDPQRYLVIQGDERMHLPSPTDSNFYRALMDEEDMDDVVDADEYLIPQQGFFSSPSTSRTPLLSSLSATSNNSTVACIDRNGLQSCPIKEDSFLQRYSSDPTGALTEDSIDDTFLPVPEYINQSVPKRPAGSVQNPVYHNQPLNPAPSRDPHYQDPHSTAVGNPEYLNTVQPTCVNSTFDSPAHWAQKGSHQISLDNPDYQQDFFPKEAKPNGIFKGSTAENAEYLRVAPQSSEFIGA

| IC50 (EGFR del19/T790M/C797S; [1]) [nM] | IC50 (EGFR del19/T790M/C797S; [2]) [nM] | IC50 (EGFR L858R/T790M/C797S; [3]) [nM] | IC50 (EGFR L858R/T790M/C797S; [4]) [nM] | IC50 (EGFR del19/C797S; [5]) [nM] | IC50 (EGFR del19/C797S; [6]) [nM] | IC50 (EGFR L858R/C797S; [7]) [nM] | IC50 (EGFR L858R/C797S; [8]) [nM] | IC50 (EGFR wildtype (WT); [9]) [nM] | IC50 (EGFR wildtype (WT); [10]) [nM] | IC50 (EGFR del19/T790M/C797S; [11]) [nM] | IC50 (EGFR L858R/T790M/C797S; [12]) [nM] | IC50 (EGFR del19/C797S; [13]) [nM] | IC50 (EGFR L858R/C797S; [14]) [nM] | IC50 (EGFR wildtype (WT); [15]) [nM] | Compound |
| --- | --- | --- | --- | --- | --- | --- | --- | --- | --- | --- | --- | --- | --- | --- | --- |
| 9.7 | 10.2 | 13.5 | 3.8 | 190 | 202 | 1490 | 57 | > 10000 | 1740 | – | – | – | – | – | O=S(=O)(C1CC1)n1cc(-c2nccc(Nc3cc(OC4CCC(OC(F)F)CC4)c(-c4cnn(C(F)F)c4)cn3)n2)cn1 (centres unmarked) [Example 70, 2-(1-(Cyclopropylsulfonyl)-1H-pyrazol-4-yl)-N-(4-((4-(difluoromethoxy)cyclohexyl)oxy)-5-(1-(difluoromethyl)-1H-pyrazol-4-yl)pyridin-2-yl)pyrimidin-4-amine] |
| 4.3 | 1.1 | – | 0.5 | 2.5 | 1.1 | 2.4 | 1.1 | 326 | 2.2 | – | – | – | – | – | O=S(=O)(C1CC1)n1cc(-c2nccc(Nc3cc(N[C@H]4CC[C@@H](CO)CC4)c(-c4cc5n(n4)CCCC5)cn3)n2)cn1 [Example 60, ((1s,4s)-4-((2-((2-(1-(Cyclopropylsulfonyl)-1H-pyrazol-4-yl)pyrimidin-4-yl)amino)-5-(4,5,6,7-tetrahydropyrazolo[1,5-a]pyridin-2-yl)pyridin-4-yl)amino)cyclohexyl)methanol] |
| – | – | – | – | – | – | – | – | – | – | 0.5 | 3 | 663 | 226 | 714 | Cn1nc(-c2nnc(Nc3ccnc(-c4cnn(S(=O)(=O)C5CC5)c4)n3)cc2N[C@H]2CC[C@@](C)(O)CC2)cc1C(F)(F)F [Example 373, (1s,4s)-4-((6-((2-(1-(Cyclopropylsulfonyl)-1H-pyrazol-4-yl)pyrimidin-4-yl)amino)-3-(1-methyl-5-(trifluoromethyl)-1H-pyrazol-3-yl)pyridazin-4-yl)amino)-1-methylcyclohexan-1-ol] |
| 0.5 | 0.8 | 0.5 | 0.3 | 2.1 | 1.1 | 2.9 | 0.7 | > 10000 | – | – | – | – | – | – | CN(C)C(=O)[C@H]1CC[C@@H](Nc2cc(Nc3ccnc(-c4cnn(S(=O)(=O)C5CC5)c4)n3)ncc2-c2ccn(C(F)F)n2)CC1 [Example 201, (1s,4s)-4-((2-((2-(1-(Cyclopropylsulfonyl)-1H-pyrazol-4-yl)pyrimidin-4-yl)amino)-5-(1-(difluoromethyl)-1H-pyrazol-3-yl)pyridin-4-yl)amino)-N,N-dimethylcyclohexane-1-carboxamide] |
| – | – | – | – | – | – | – | – | – | – | 5.9 | 3.2 | 10.1 | 6 | 98 | Cc1nn(CC(F)(F)F)cc1-c1nccc(Nc2cc(N[C@H]3CC[C@@](C)(O)CC3)c(-c3cc(C(F)(F)F)n(C)n3)cn2)n1 [Example 332, (1s,4s)-1-Methyl-4-((2-((2-(3-methyl-1-(2,2,2-trifluoroethyl)-1H-pyrazol-4-yl)pyrimidin-4-yl)amino)-5-(1-methyl-5-(trifluoromethyl)-1H-pyrazol-3-yl)pyridin-4-yl)amino)cyclohexan-1-ol] |
| 0.9 | 0.8 | 1 | 0.4 | 1.2 | 0.3 | 0.8 | 0.2 | 321 | – | – | – | – | – | – | Cn1ccc(-c2cnc(Nc3ccnc(-c4cnn(S(=O)(=O)C5CC5)c4)n3)cc2N[C@H]2CC[C@@H](CCO)CC2)n1 [Example 136, 2-((1s,4s)-4-((2-((2-(1-(Cyclopropylsulfonyl)-1H-pyrazol-4-yl)pyrimidin-4-yl)amino)-5-(1-methyl-1H-pyrazol-3-yl)pyridin-4-yl)amino)cyclohexyl)ethan-1-ol] |
| 6.2 | 7.7 | 4.8 | 2.5 | 73 | 48.2 | 1100 | 50.7 | > 10000 | 73.2 | – | – | – | – | – | CC1CC(Nc2cc(Nc3ccnc(-c4cnn(S(=O)(=O)C5CC5)c4)n3)ncc2-c2ccn(C(F)F)n2)CCC1O (centres unmarked) [Example 105, 4-((2-((2-(1-(Cyclopropylsulfonyl)-1H-pyrazol-4-yl)pyrimidin-4-yl)amino)-5-(1-(difluoromethyl)-1H-pyrazol-3-yl)pyridin-4-yl)amino)-2-methylcyclohexan-1-ol] |
| – | 1.3 | – | 1.1 | – | 410 | – | 23.2 | – | 418 | – | – | – | – | – | FC(F)Cn1cc(-c2nccc(Nc3cc(NC4CCCC(F)C4)c(-c4ccn(C(F)F)n4)cn3)n2)cn1 (centres unmarked) [Example 180, N^2-(2-(1-(2,2-Difluoroethyl)-1H-pyrazol-4-yl)pyrimidin-4-yl)-5-(1-(difluoromethyl)-1H-pyrazol-3-yl)-N^4-(3-fluorocyclohexyl)pyridine-2,4-diamine] |
| 1.2 | 0.8 | 4.2 | 0.6 | 54.5 | 33.5 | 622 | 33.5 | > 10000 | 149 | – | – | – | – | – | CN[C@H]1CC[C@@H](Oc2cc(Nc3ccnc(-c4cnn(S(=O)(=O)C5CC5)c4)n3)ncc2-c2ccn(C(F)F)n2)CC1 [Example 65, 2-(1-(Cyclopropylsulfonyl)-1H-pyrazol-4-yl)-N-(5-(1-(difluoromethyl)-1H-pyrazol-3-yl)-4-(((1s,4s)-4-(methylamino)cyclohexyl)oxy)pyridin-2-yl)pyrimidin-4-amine] |
| – | 20.2 | – | 4.8 | – | 90.9 | – | 188 | – | 1010 | – | – | – | – | – | O=S(=O)(C1CC1)n1cc(-c2nccc(Nc3cc(N[C@H]4CC[C@@H](F)CC4)c(-c4ccn(C(F)(F)F)n4)cn3)n2)cn1 [Example 286, N^2-(2-(1-(Cyclopropylsulfonyl)-1H-pyrazol-4-yl)pyrimidin-4-yl)-N^4-((1s,4s)-4-fluorocyclohexyl)-5-(1-(trifluoromethyl)-1H-pyrazol-3-yl)pyridine-2,4-diamine] |
| 5.4 | – | 7.4 | – | 12.2 | 11.8 | 187 | 6.6 | > 10000 | 86.8 | – | – | – | – | – | CC(C)(O)[C@H]1CC[C@@H](Nc2cc(Nc3ccnc(-c4cnn(S(=O)(=O)C5CC5)c4)n3)ncc2-c2ccn(CC(F)(F)F)n2)CC1 [Example 265, 2-((1s,4s)-4-((2-((2-(1-(Cyclopropylsulfonyl)-1H-pyrazol-4-yl)pyrimidin-4-yl)amino)-5-(1-(2,2,2-trifluoroethyl)-1H-pyrazol-3-yl)pyridin-4-yl)amino)cyclohexyl)propan-2-ol] |
| 0.5 | 0.3 | 0.2 | 0.1 | 0.5 | 23.9 | 1.1 | 0.4 | 325 | 1.4 | – | – | – | – | – | O=S(=O)(C1CC1)n1cc(-c2nccc(Nc3cc(N[C@H]4CC[C@@H](CN5CCC5)CC4)c(-c4ccn(CC(F)(F)F)n4)cn3)n2)cn1 [Example 272, N^4-((1s,4s)-4-(Azetidin-1-ylmethyl)cyclohexyl)-N^2-(2-(1-(cyclopropylsulfonyl)-1H-pyrazol-4-yl)pyrimidin-4-yl)-5-(1-(2,2,2-trifluoroethyl)-1H-pyrazol-3-yl)pyridine-2,4-diamine] |
| – | 0.1 | – | 0.1 | – | 1.3 | – | 0.1 | – | 3.9 | – | – | – | – | – | O=S(=O)(C1CC1)n1cc(-c2nccc(Nc3cc(NN4CCC(O)CC4)c(-c4ccn(C(F)F)n4)cn3)n2)cn1 [Example 153, 1-((2-((2-(1-(Cyclopropylsulfonyl)-1H-pyrazol-4-yl)pyrimidin-4-yl)amino)-5-(1-(difluoromethyl)-1H-pyrazol-3-yl)pyridin-4-yl)amino)piperidin-4-ol] |
| 9.8 | 8.6 | 4.3 | 3.8 | 8.7 | 5 | 59.9 | 2.7 | 5230 | 27.1 | – | – | – | – | – | Cn1nc(-c2cnc(Nc3ccnc(-c4cnn(S(=O)(=O)C5CC5)c4)n3)cc2N[C@H]2CCC[C@H](CO)C2)cc1C(F)(F)F [Example 260, ((1S,3S)-3-((2-((2-(1-(Cyclopropylsulfonyl)-1H-pyrazol-4-yl)pyrimidin-4-yl)amino)-5-(1-methyl-5-(trifluoromethyl)-1H-pyrazol-3-yl)pyridin-4-yl)amino)cyclohexyl)methanol] |
